Legend:
Assay in all cases: radiometric filter-binding kinase assay, Kinase HotSpot
Conditions in all cases: compound 0.5 µM; ATP 10 µM
CLK1 (human) = CLK1 (human) (UniProt P49759)
ULK1 (human) = ULK1 (human) (UniProt O75385)
CSNK1G2 (human) = CSNK1G2 (human) (UniProt P78368)
TAOK1 (human) = TAOK1 (human) (UniProt Q7L7X3)
NEK3 (human) = NEK3 (human) (UniProt P51956)
MAPK9 (human) = MAPK9 (human) (UniProt P45984)
STK11 (human) = STK11 (human) (UniProt Q15831)
[1] = target: TYK2 JH1 catalytic (human) (UniProt P29597)
ALK (human) = ALK (human) (UniProt Q9UM73)
MAP4K4 (human) = MAP4K4 (human) (UniProt O95819)
LIMK1 (human) = LIMK1 (human) (UniProt P53667)
TTK (human) = TTK (human) (UniProt P33981)
Sequence of TTK (human) (P33981 whole entry, looked up): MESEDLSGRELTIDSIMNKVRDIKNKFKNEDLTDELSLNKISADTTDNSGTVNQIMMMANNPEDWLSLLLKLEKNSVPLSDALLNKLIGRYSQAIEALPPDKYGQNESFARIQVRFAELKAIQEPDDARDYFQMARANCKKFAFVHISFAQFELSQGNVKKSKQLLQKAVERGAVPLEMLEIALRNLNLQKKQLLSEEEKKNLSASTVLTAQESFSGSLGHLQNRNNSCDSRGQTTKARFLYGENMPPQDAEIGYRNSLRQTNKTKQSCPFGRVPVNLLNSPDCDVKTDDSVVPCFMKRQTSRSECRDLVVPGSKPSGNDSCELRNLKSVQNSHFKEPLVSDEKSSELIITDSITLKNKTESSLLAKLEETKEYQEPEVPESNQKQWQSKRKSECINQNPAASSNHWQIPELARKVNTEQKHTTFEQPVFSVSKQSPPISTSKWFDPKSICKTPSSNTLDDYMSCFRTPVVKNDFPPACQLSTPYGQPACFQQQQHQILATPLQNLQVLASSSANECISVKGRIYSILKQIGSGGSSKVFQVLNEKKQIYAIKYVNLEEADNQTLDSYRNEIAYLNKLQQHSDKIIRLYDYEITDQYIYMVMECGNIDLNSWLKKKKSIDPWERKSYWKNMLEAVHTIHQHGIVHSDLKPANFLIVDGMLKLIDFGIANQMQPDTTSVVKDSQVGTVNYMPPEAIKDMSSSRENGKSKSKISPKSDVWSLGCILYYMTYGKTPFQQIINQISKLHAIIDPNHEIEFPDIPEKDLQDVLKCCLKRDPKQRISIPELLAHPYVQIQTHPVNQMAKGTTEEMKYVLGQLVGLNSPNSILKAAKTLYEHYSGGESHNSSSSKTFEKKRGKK

STK16 (human) = STK16 (human) (UniProt O75716)
Sequence of STK16 (human) (O75716 whole entry, looked up): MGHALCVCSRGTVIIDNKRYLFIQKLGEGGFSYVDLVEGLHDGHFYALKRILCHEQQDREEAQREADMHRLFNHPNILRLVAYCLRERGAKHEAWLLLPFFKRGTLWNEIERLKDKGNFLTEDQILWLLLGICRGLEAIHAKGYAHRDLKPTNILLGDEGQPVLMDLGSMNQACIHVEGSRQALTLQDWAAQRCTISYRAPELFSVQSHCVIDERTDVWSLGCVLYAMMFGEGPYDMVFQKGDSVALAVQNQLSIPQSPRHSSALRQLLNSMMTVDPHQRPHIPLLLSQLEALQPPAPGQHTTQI

EPHB2 (human) = EPHB2 (human) (UniProt P29323)
Sequence of EPHB2 (human) (P29323 whole entry, looked up): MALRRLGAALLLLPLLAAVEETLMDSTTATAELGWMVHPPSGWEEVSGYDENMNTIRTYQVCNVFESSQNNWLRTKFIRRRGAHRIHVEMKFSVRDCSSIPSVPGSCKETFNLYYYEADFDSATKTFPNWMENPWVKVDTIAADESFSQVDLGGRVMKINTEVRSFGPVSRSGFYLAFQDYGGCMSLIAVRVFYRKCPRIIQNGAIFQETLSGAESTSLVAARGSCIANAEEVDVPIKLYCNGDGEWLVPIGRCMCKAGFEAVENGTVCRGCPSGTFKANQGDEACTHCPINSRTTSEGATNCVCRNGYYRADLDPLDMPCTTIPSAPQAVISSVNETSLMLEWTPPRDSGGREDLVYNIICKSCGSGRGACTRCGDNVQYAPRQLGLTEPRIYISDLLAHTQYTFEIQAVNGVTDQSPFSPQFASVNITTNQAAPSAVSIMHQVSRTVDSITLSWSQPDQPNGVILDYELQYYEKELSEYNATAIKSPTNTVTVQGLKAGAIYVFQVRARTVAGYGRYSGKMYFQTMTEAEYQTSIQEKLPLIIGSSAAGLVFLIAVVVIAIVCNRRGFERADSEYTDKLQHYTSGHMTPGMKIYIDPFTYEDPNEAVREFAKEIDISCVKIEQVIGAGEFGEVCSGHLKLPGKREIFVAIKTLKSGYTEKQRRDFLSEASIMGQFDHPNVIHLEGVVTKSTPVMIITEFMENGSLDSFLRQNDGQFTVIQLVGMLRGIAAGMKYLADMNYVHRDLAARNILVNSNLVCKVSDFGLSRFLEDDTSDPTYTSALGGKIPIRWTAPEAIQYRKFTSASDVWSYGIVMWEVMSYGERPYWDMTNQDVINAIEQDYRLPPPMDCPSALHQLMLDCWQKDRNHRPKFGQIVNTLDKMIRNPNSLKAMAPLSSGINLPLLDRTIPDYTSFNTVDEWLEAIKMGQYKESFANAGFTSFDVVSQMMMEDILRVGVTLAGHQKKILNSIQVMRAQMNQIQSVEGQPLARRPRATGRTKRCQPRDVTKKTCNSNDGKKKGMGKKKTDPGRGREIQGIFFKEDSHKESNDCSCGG

ROS1 (human) = ROS1 (human) (UniProt P08922)
CDK2 CCNA2 (human) = CDK2 CCNA2 (human) (UniProt P24941+P20248)
MAPK13 (human) = MAPK13 (human) (UniProt O15264)
CAMK2A (human) = CAMK2A (human) (UniProt Q9UQM7)
AXL (human) = AXL (human) (UniProt P30530)
HIPK4 (human) = HIPK4 (human) (UniProt Q8NE63)
BRSK1 (human) = BRSK1 (human) (UniProt Q8TDC3)
Sequence of BRSK1 (human) (Q8TDC3 whole entry, looked up): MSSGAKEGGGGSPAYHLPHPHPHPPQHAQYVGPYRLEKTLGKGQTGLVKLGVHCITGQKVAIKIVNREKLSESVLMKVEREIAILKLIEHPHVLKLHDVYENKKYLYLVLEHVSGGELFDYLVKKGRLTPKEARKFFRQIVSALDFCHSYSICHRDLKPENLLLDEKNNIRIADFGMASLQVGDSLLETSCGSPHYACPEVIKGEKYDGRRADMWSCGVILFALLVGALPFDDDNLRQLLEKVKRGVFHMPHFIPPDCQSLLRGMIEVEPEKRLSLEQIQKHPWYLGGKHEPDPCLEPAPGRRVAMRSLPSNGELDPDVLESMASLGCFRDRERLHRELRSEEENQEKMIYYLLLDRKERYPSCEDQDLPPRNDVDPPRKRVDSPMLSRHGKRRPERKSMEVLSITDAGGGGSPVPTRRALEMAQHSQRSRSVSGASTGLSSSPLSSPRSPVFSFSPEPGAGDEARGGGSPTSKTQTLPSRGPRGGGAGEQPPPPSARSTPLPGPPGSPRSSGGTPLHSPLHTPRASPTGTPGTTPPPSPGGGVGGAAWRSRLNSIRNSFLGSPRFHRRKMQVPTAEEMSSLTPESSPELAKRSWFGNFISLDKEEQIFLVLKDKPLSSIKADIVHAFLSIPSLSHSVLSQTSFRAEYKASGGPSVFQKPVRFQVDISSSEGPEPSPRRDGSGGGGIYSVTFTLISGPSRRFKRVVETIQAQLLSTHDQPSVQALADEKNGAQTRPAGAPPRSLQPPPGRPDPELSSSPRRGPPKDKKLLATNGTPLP

MINK1 (human) = MINK1 (human) (UniProt Q8N4C8)
RPS6KA4 KD2 (human) = RPS6KA4 KD2 (human) (UniProt O75676)
RPS6KA6 KD1 KD2 (human) = RPS6KA6 KD1 KD2 (human) (UniProt Q9UK32)
TGFBR1 (human) = TGFBR1 (human) (UniProt P36897)
Sequence of TGFBR1 (human) (P36897 whole entry, looked up): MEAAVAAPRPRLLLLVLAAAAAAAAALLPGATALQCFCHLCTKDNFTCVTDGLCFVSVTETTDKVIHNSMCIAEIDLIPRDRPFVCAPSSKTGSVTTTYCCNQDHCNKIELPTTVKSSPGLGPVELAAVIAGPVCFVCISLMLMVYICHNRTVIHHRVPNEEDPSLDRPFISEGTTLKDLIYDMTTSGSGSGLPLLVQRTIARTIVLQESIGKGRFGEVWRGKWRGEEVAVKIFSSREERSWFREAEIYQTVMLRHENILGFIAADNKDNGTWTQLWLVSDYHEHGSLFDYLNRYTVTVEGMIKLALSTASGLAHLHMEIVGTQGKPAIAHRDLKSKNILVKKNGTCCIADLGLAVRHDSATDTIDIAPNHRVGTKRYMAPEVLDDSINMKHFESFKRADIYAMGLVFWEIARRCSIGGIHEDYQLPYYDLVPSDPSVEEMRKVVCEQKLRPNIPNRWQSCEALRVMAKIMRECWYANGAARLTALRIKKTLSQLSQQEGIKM

PRKCE (human) = PRKCE (human) (UniProt Q02156)
DAPK2 (human) = DAPK2 (human) (UniProt Q9UIK4)
MET (human) = MET (human) (UniProt P08581)
ZAP70 (human) = ZAP70 (human) (UniProt P43403)
ADRBK2 (human) = ADRBK2 (human) (UniProt P35626)
DAPK3 (human) = DAPK3 (human) (UniProt O43293)
MAPKAPK3 (human) = MAPKAPK3 (human) (UniProt Q16644)
CDK1 CCNB1 (human) = CDK1 CCNB1 (human) (UniProt P06493+P14635)
FER (human) = FER (human) (UniProt P16591)
RPS6KA2 KD1 KD2 (human) = RPS6KA2 KD1 KD2 (human) (UniProt Q15349)
FRK (human) = FRK (human) (UniProt P42685)
PTK6 (human) = PTK6 (human) (UniProt Q13882)
NTRK2 (human) = NTRK2 (human) (UniProt Q16620)
WNK2 (human) = WNK2 (human) (UniProt Q9Y3S1)
PDPK1 (human) = PDPK1 (human) (UniProt O15530)
PRKCB1 (human) = PRKCB1 (human) (UniProt P05771)
SYK (human) = SYK (human) (UniProt P43405)

Sequence of TAOK1 (human) (Q7L7X3 whole entry, looked up): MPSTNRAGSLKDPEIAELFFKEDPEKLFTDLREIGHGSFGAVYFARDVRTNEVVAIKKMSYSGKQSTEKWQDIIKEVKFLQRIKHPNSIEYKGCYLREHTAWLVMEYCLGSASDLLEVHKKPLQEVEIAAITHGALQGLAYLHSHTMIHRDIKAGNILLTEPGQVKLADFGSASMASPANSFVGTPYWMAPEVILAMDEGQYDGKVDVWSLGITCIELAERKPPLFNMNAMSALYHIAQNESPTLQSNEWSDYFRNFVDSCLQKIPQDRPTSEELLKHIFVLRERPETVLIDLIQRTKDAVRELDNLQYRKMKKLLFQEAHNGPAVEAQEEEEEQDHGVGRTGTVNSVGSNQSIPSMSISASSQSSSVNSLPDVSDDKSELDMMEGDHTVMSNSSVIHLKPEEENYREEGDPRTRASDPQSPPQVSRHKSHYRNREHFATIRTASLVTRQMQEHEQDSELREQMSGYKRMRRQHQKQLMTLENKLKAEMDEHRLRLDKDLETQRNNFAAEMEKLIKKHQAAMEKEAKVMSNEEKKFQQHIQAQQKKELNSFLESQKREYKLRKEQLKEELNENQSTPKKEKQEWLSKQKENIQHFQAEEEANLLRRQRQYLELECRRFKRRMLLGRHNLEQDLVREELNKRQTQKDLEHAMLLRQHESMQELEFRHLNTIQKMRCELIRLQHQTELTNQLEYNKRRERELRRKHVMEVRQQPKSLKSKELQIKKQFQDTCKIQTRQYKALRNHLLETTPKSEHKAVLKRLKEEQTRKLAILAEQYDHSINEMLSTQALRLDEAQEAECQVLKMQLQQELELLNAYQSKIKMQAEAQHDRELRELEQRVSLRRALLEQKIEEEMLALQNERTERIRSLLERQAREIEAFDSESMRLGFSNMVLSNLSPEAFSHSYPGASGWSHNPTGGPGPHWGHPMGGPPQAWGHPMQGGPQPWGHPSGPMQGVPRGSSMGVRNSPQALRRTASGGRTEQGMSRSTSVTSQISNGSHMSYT
Sequence of NEK3 (human) (P51956 whole entry, looked up): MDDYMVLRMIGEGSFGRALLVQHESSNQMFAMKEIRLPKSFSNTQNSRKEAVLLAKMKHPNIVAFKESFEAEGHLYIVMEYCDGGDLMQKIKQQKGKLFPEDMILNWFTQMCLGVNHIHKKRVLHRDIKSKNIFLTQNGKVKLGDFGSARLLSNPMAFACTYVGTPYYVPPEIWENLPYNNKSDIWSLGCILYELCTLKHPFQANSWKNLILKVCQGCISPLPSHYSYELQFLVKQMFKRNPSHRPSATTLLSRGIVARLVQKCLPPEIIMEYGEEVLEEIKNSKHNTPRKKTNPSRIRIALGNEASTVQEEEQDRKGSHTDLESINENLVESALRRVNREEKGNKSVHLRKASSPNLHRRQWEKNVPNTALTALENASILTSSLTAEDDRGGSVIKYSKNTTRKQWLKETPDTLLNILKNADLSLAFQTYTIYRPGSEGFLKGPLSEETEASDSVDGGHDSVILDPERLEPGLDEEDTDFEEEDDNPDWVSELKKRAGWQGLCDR

`COc1ccc(-c2cnc3c(-c4ccsc4)cnn3c2)cc1` was tested, and the residual activity (CLK1 (human)) was 82.8%, the residual activity (ULK1 (human)) was 79% and the residual activity (CSNK1G2 (human)) was 82.3%. For the same compound, the residual activity (TAOK1 (human)) was 105%, the residual activity (NEK3 (human)) was 87.7% and the residual activity (MAPK9 (human)) was 104%. It also gave a residual activity (STK11 (human)) of 95.9%, a residual activity [1] of 86.1% and a residual activity (ALK (human)) of 80.4%. The residual activity (MAP4K4 (human)) was 28.4%, the residual activity (LIMK1 (human)) was 71.2% and the residual activity (TTK (human)) was 94.2%. The residual activity (STK16 (human)) was 66.9%, the residual activity (EPHB2 (human)) was 80.5% and the residual activity (ROS1 (human)) was 98.8%. The residual activity (CDK2 CCNA2 (human)) was 83%, the residual activity (MAPK13 (human)) was 93.5% and the residual activity (CAMK2A (human)) was 96.6%. The residual activity (AXL (human)) was 96.7%, the residual activity (HIPK4 (human)) was 108% and the residual activity (BRSK1 (human)) was 81.5%. For the same compound, the residual activity (MINK1 (human)) was 63.7%, the residual activity (RPS6KA4 KD2 (human)) was 98.7% and the residual activity (RPS6KA6 KD1 KD2 (human)) was 90.7%. It also gave a residual activity (TGFBR1 (human)) of 98%, a residual activity (PRKCE (human)) of 103% and a residual activity (DAPK2 (human)) of 87.4%. It also gave a residual activity (MET (human)) of 86.3%, a residual activity (ZAP70 (human)) of 93.7% and a residual activity (ADRBK2 (human)) of 97.8%. It also gave a residual activity (DAPK3 (human)) of 81.9%, a residual activity (MAPKAPK3 (human)) of 97.5% and a residual activity (CDK1 CCNB1 (human)) of 87.2%. The residual activity (FER (human)) was 81.5%, the residual activity (RPS6KA2 KD1 KD2 (human)) was 87.5% and the residual activity (FRK (human)) was 85.6%. The residual activity (PTK6 (human)) was 77.5%, the residual activity (NTRK2 (human)) was 82.9% and the residual activity (WNK2 (human)) was 103%. It also gave a residual activity (PDPK1 (human)) of 96%, a residual activity (PRKCB1 (human)) of 101% and a residual activity (SYK (human)) of 101%.
With `O=C1Nc2ccccc2/C1=C\c1c(Cl)[nH]c2ccccc12` the residual activity (CLK1 (human)) was 103%, the residual activity (ULK1 (human)) was 106% and the residual activity (CSNK1G2 (human)) was 96.3%. For the same compound, the residual activity (TAOK1 (human)) was 100%, the residual activity (NEK3 (human)) was 91.2% and the residual activity (MAPK9 (human)) was 101%. For the same compound, the residual activity (STK11 (human)) was 83.4%, the residual activity [1] was 110% and the residual activity (ALK (human)) was 97.9%. The residual activity (MAP4K4 (human)) was 75.7%, the residual activity (LIMK1 (human)) was 109% and the residual activity (TTK (human)) was 101%. It also gave a residual activity (STK16 (human)) of 102%, a residual activity (EPHB2 (human)) of 94.2% and a residual activity (ROS1 (human)) of 109%. It also gave a residual activity (CDK2 CCNA2 (human)) of 91.5%, a residual activity (MAPK13 (human)) of 98.9% and a residual activity (CAMK2A (human)) of 103%. The residual activity (AXL (human)) was 97.8%, the residual activity (HIPK4 (human)) was 98.8% and the residual activity (BRSK1 (human)) was 91.9%. The residual activity (MINK1 (human)) was 94.9%, the residual activity (RPS6KA4 KD2 (human)) was 93.6% and the residual activity (RPS6KA6 KD1 KD2 (human)) was 91.2%. The residual activity (TGFBR1 (human)) was 94.4%, the residual activity (PRKCE (human)) was 95.1% and the residual activity (DAPK2 (human)) was 96.8%. The residual activity (MET (human)) was 109%, the residual activity (ZAP70 (human)) was 106% and the residual activity (ADRBK2 (human)) was 90.1%. It also gave a residual activity (DAPK3 (human)) of 91.2%, a residual activity (MAPKAPK3 (human)) of 91.3% and a residual activity (CDK1 CCNB1 (human)) of 94.3%. It also gave a residual activity (FER (human)) of 91.8%, a residual activity (RPS6KA2 KD1 KD2 (human)) of 81.1% and a residual activity (FRK (human)) of 100%. The residual activity (PTK6 (human)) was 76.9%, the residual activity (NTRK2 (human)) was 95% and the residual activity (WNK2 (human)) was 93.4%. It also gave a residual activity (PDPK1 (human)) of 94.3%, a residual activity (PRKCB1 (human)) of 105% and a residual activity (SYK (human)) of 102%.
For `Nc1n[nH]c2nnc(-c3c(-c4ccccc4)nn4ccccc34)cc12`, the residual activity (CLK1 (human)) was 108%, the residual activity (ULK1 (human)) was 97.1% and the residual activity (CSNK1G2 (human)) was 93.7%. The residual activity (TAOK1 (human)) was 95.8%, the residual activity (NEK3 (human)) was 82.7% and the residual activity (MAPK9 (human)) was 48.4%. The residual activity (STK11 (human)) was 91.8%, the residual activity [1] was 104% and the residual activity (ALK (human)) was 108%. The residual activity (MAP4K4 (human)) was 62%, the residual activity (LIMK1 (human)) was 98.2% and the residual activity (TTK (human)) was 110%. It also gave a residual activity (STK16 (human)) of 108%, a residual activity (EPHB2 (human)) of 93.1% and a residual activity (ROS1 (human)) of 80.2%. For the same compound, the residual activity (CDK2 CCNA2 (human)) was 92.9%, the residual activity (MAPK13 (human)) was 101% and the residual activity (CAMK2A (human)) was 102%. For the same compound, the residual activity (AXL (human)) was 99.1%, the residual activity (HIPK4 (human)) was 105% and the residual activity (BRSK1 (human)) was 98.6%. It also gave a residual activity (MINK1 (human)) of 73%, a residual activity (RPS6KA4 KD2 (human)) of 94.7% and a residual activity (RPS6KA6 KD1 KD2 (human)) of 95.5%. The residual activity (TGFBR1 (human)) was 96.1%, the residual activity (PRKCE (human)) was 72.7% and the residual activity (DAPK2 (human)) was 103%. It also gave a residual activity (MET (human)) of 95%, a residual activity (ZAP70 (human)) of 90.1% and a residual activity (ADRBK2 (human)) of 101%. The residual activity (DAPK3 (human)) was 102%, the residual activity (MAPKAPK3 (human)) was 103% and the residual activity (CDK1 CCNB1 (human)) was 90.2%. It also gave a residual activity (FER (human)) of 90.8%, a residual activity (RPS6KA2 KD1 KD2 (human)) of 96.5% and a residual activity (FRK (human)) of 101%. It also gave a residual activity (PTK6 (human)) of 90.8%, a residual activity (NTRK2 (human)) of 89.7% and a residual activity (WNK2 (human)) of 111%. The residual activity (PDPK1 (human)) was 104%, the residual activity (PRKCB1 (human)) was 96.5% and the residual activity (SYK (human)) was 97.4%.
In the case of `CSc1nc(-c2ccc(F)cc2)c(-c2ccnc(NC(C)c3ccccc3)c2)[nH]1` (stereo not drawn), the residual activity (CLK1 (human)) is reported as 96.8%, the residual activity (ULK1 (human)) is reported as 110% and the residual activity (CSNK1G2 (human)) is reported as 75.6%. For the same compound, the residual activity (TAOK1 (human)) was 79.9%, the residual activity (NEK3 (human)) was 94.7% and the residual activity (MAPK9 (human)) was 31.1%. It also gave a residual activity (STK11 (human)) of 95.4%, a residual activity [1] of 96.5% and a residual activity (ALK (human)) of 93.3%. The residual activity (MAP4K4 (human)) was 91.6%, the residual activity (LIMK1 (human)) was 103% and the residual activity (TTK (human)) was 102%. It also gave a residual activity (STK16 (human)) of 95.1%, a residual activity (EPHB2 (human)) of 85.4% and a residual activity (ROS1 (human)) of 99.1%. It also gave a residual activity (CDK2 CCNA2 (human)) of 96.8%, a residual activity (MAPK13 (human)) of 93.9% and a residual activity (CAMK2A (human)) of 96.5%. It also gave a residual activity (AXL (human)) of 109%, a residual activity (HIPK4 (human)) of 95.2% and a residual activity (BRSK1 (human)) of 84.6%. For the same compound, the residual activity (MINK1 (human)) was 89.6%, the residual activity (RPS6KA4 KD2 (human)) was 96.5% and the residual activity (RPS6KA6 KD1 KD2 (human)) was 93.1%. For the same compound, the residual activity (TGFBR1 (human)) was 93.3%, the residual activity (PRKCE (human)) was 87.6% and the residual activity (DAPK2 (human)) was 101%. It also gave a residual activity (MET (human)) of 116%, a residual activity (ZAP70 (human)) of 102% and a residual activity (ADRBK2 (human)) of 96.4%. For the same compound, the residual activity (DAPK3 (human)) was 94.3%, the residual activity (MAPKAPK3 (human)) was 107% and the residual activity (CDK1 CCNB1 (human)) was 106%. For the same compound, the residual activity (FER (human)) was 97.2%, the residual activity (RPS6KA2 KD1 KD2 (human)) was 94.3% and the residual activity (FRK (human)) was 100%. It also gave a residual activity (PTK6 (human)) of 96.8%, a residual activity (NTRK2 (human)) of 88.5% and a residual activity (WNK2 (human)) of 118%. The residual activity (PDPK1 (human)) was 91.3%, the residual activity (PRKCB1 (human)) was 92.2% and the residual activity (SYK (human)) was 96.8%.
